Laboratory results from article PMC2551328 (Biochemistry, 2008).

Assays:
Assay type in all cases: biochemical
M.tb PGDH G316, 318V = M.tb PGDH G316, 318V (Mycobacterium tuberculosis, UniProt P9WNX3, G315V/G317V)
M.tb PGDH G318V = M.tb PGDH G318V (Mycobacterium tuberculosis, UniProt P9WNX3, G317V)
M.tb PGDH D463A = M.tb PGDH D463A (Mycobacterium tuberculosis, UniProt P9WNX3, D462A)
M.tb PGDH G316V = M.tb PGDH G316V (Mycobacterium tuberculosis, UniProt P9WNX3, G315V)
M.tb PGDH Y461A = M.tb PGDH Y461A (Mycobacterium tuberculosis, UniProt P9WNX3, Y460A)
M.tb PGDH G317, 318V = M.tb PGDH G317, 318V (Mycobacterium tuberculosis, UniProt P9WNX3, G316V/G317V)
M.tb PGDH N481A = M.tb PGDH N481A (Mycobacterium tuberculosis, UniProt P9WNX3, N480A)
M.tb PGDH G316, 317V = M.tb PGDH G316, 317V (Mycobacterium tuberculosis, UniProt P9WNX3, G315V/G316V)
M.tb PGDH G317V = M.tb PGDH G317V (Mycobacterium tuberculosis, UniProt P9WNX3, G316V)

Compound `O=C(O)C(=O)COP(=O)(O)O` [HPAP, hydroxypyruvic acid phosphate] has a Ki (M.tb PGDH G316, 318V) of 220 ± 35 µM, a Km (M.tb PGDH G316, 318V) of 470 ± 43 µM and a kcat (M.tb PGDH G316, 318V) of 2827 ± 197 s⁻¹. For the same compound, the Ki (M.tb PGDH G318V) was 1920 ± 437 µM, the Km (M.tb PGDH G318V) was 203 ± 23 µM and the kcat (M.tb PGDH G318V) was 2349 ± 177 s⁻¹. For the same compound, the Ki (M.tb PGDH D463A) was 1090 ± 165 µM, the Km (M.tb PGDH D463A) was 140 ± 10 µM and the kcat (M.tb PGDH D463A) was 720 ± 89 s⁻¹. It also gave a Ki (M.tb PGDH G316V) of 2230 ± 190 µM, a Km (M.tb PGDH G316V) of 114 ± 4 µM and a kcat (M.tb PGDH G316V) of 1111 ± 30 s⁻¹. For the same compound, the Ki (M.tb PGDH Y461A) was 420 ± 65 µM, the Km (M.tb PGDH Y461A) was 270 ± 60 µM and the kcat (M.tb PGDH Y461A) was 2754 ± 300 s⁻¹. It also gave a Ki (M.tb PGDH G317, 318V) of 1620 ± 402 µM, a Km (M.tb PGDH G317, 318V) of 220 ± 43 µM and a kcat (M.tb PGDH G317, 318V) of 605 ± 27 s⁻¹. The Ki (M.tb PGDH N481A) was 2320 ± 337 µM, the Km (M.tb PGDH N481A) was 120 ± 15 µM and the kcat (M.tb PGDH N481A) was 603 ± 77 s⁻¹. For the same compound, the Ki (M.tb PGDH G316, 317V) was 380 ± 45 µM, the Km (M.tb PGDH G316, 317V) was 610 ± 95 µM and the kcat (M.tb PGDH G316, 317V) was 2805 ± 310 s⁻¹. The Ki (M.tb PGDH G317V) was 1110 ± 148 µM, the Km (M.tb PGDH G317V) was 165 ± 9 µM and the kcat (M.tb PGDH G317V) was 2111 ± 119 s⁻¹.
`N[C@@H](CO)C(=O)O` [L-serine, reference compound] was tested, and the “Hill Coefficient” value (M.tb PGDH G316, 318V) was 1.9 ± 0.1, the “Hill Coefficient” value (M.tb PGDH G318V) was 2.5 ± 0.1 and the “decrease in sensitivity to serine” value (M.tb PGDH G318V) was “about 5 fold”. The “Hill Coefficient” value (M.tb PGDH D463A) was 1.4 ± 0.1, the “Hill Coefficient” value (M.tb PGDH G316V) was 1.6 ± 0.1 and the “Hill Coefficient” value (M.tb PGDH Y461A) was 1.7 ± 0.1. The “Hill Coefficient” value (M.tb PGDH G317, 318V) was 1.9 ± 0.1, the “Hill Coefficient” value (M.tb PGDH G316, 317V) was 1.7 ± 0.1 and the “Hill Coefficient” value (M.tb PGDH G317V) was 1.5 ± 0.1.
